Results taken from article PMC9105976, “A Novel β-Hairpin Peptide Z-d14CFR Enhances Multidrug-Resistant Bacterial Clearance in a Murine Model of Mastitis” (International Journal of Molecular Sciences, 2022).
Converted amounts (≈) assume the structure as drawn. Like-named read-outs stand apart in the source and are kept apart here. Positions of bridges follow the written chain, without caps; N, C: chain ends. Residues, ends and D or L forms follow the SMILES beside them.

Columns and labels:
[1] = system: Escherichia coli CAU 201920; assay: MIC/MBC, microdilution broth method; type: cell-based; details: for MBC: CAU201920, Escherichia coli CAU 201920 (MDR isolate), kills 99.9% bacteria, NA = no activity at 1 mg/mL, read-out: MBC; for MIC: Escherichia coli, CAU201920, 18 h, read-out: MIC
Procedure: (§1) The MIC of peptides against bacteria was carried out by the microdilution broth method. The bacterial culture (OD 600 = 0.6) was diluted in 10 mM PBS to 1 × 10^6 CFU/mL. The bacterial suspension (100 μL) was added to 96-well plates, and the same volume of peptides, ampicillin or gentamicin (concentrations ranging from 0.001 to 2 mg/mL) were then added to the same 96-well plates, respectively.

[2] = system: Escherichia coli CAU 201919; assay: MIC/MBC, microdilution broth method; type: cell-based; details: for MBC: CAU201919, Escherichia coli CAU 201919 (MDR isolate), kills 99.9% bacteria, NA = no activity at 1 mg/mL, read-out: MBC; for MIC: Escherichia coli, CAU201919, 18 h, read-out: MIC
Procedure: as §1

[3] = system: Bacillus cereus CAU 202020; assay: MIC/MBC, microdilution broth method; type: cell-based; details: for MIC: Bacillus cereus, CAU202020, 18 h, read-out: MIC; for MBC: CAU202020, Bacillus cereus CAU 202020 (MDR isolate), kills 99.9% bacteria, NA = no activity at 1 mg/mL, read-out: MBC
Procedure: as §1

[4] = system: Staphylococcus aureus ATCC29213; assay: MIC/MBC, microdilution broth method; type: cell-based; details: for MBC: Staphylococcus aureus ATCC29213, kills 99.9% bacteria, NA = no activity at 1 mg/mL, read-out: MBC; for MIC: Staphylococcus aureus, ATCC29213, 18 h, read-out: MIC
Procedure: as §1

[5] = system: Staphylococcus haemolyticus CAU202078; assay: MIC/MBC, microdilution broth method; type: cell-based; details: for MBC: Staphylococcus haemolyticus CAU202078 (MDR isolate), kills 99.9% bacteria, NA = no activity at 1 mg/mL, read-out: MBC; for MIC: Staphylococcus haemolyticus, CAU202078, 18 h, read-out: MIC
Procedure: as §1

[6] = system: Escherichia coli CVCC1450; assay: MIC/MBC, microdilution broth method; type: cell-based; details: for MBC: Escherichia coli CVCC1450, minimum concentration which kills 99.9% bacteria, NA = no activity at 1 mg/mL, read-out: MBC; for MIC: Escherichia coli, CVCC1450, 18 h, read-out: MIC
Procedure: as §1

[7] = system: Proteus vulgaris CVCC1971; assay: MIC/MBC, microdilution broth method; type: cell-based; details: for MBC: kills 99.9% bacteria, NA = no activity at 1 mg/mL
Procedure: as §1

[8] = system: Escherichia coli ATCC25922; assay: MIC/MBC, microdilution broth method; type: cell-based; details: for MBC: Escherichia coli ATCC25922, minimum concentration which kills 99.9% bacteria, NA = no activity at 1 mg/mL, read-out: MBC; for MIC: Escherichia coli, ATCC25922, 18 h, read-out: MIC
Procedure: as §1

[9] = system: Salmonella typhimurium ATCC14028; assay: MIC/MBC, microdilution broth method; type: cell-based; details: Salmonella enterica; for MIC: 18 h, read-out: MIC; for MBC: Salmonella typhimurium ATCC14028, kills 99.9% bacteria, NA = no activity at 1 mg/mL, read-out: MBC
Procedure: as §1

[10] = system: Klebsiella pneumoniae CAU202084; assay: MIC/MBC, microdilution broth method; type: cell-based; details: for MBC: kills 99.9% bacteria, NA = no activity at 1 mg/mL
Procedure: as §1

[11] = system: Streptococcus suis CVCC3307; assay: MIC/MBC, microdilution broth method; type: cell-based; details: for MBC: kills 99.9% bacteria, NA = no activity at 1 mg/mL
Procedure: as §1

[12] = system: MRSA ATCC33591; assay: MIC/MBC, microdilution broth method; type: cell-based, S. aureus; details: for MBC: MRSA ATCC33591, kills 99.9% bacteria, NA = no activity at 1 mg/mL
Procedure: as §1

[13] = system: E. coli ATCC25922; assay: Time-killing assay; type: cell-based; details: 2 MIC, CFU counts at 0-24 h; for time to kill bacteria in the logarithmic phase: 1 × 10^6 CFU/mL
Procedure: (§2) E. coli ATCC25922 and S. aureus ATCC29213 in the mid-logarithmic phase were diluted into 1 × 10^6 CFU/mL with 10 mM PBS, and incubated with 10 μL Z-d14CFR in a final concentration of 2 MIC. At 0, 4, 8, 12, 16, 20, and 24 h, the mixture was serial diluted and spread onto LB agar plates. After 16 h of cultivation, the CFU number of bacteria was counted to evaluate the ability of peptide to kill bacteria. The bacteria treated with 10 mM PBS as a negative control, and meanwhile incubated with 2 MIC gentamicin or polymyxin B as a positive control.

[14] = system: S. aureus ATCC29213; assay: Time-killing assay; type: cell-based; details: 2 MIC, CFU counts at 0-24 h; for time to kill bacteria in the logarithmic phase: 1 × 10^6 CFU/mL
Procedure: as §2

[15] = system: E. coli CAU201919; assay: Murine model of mastitis induced by MDR E. coli; type: in vivo, mice; details: Z-d14CFR 25 μg or gentamicin 10 μg via milk duct at 3 h and 15 h, 27 h post-infection
Description: In this study, the therapeutic effects of Z-d14CFR on MDR bacterial infection in vivo was verified by a murine mastitis model. E. coli CAU201919 was used to establish the mastitis model because it is highly pathogenic compared with other bacteria and is resistant to various antibiotics, such as ampicillin, amoxicillin and cefazolin. In brief, 45 Crl:CD1 female mice at 17–18 days of gestation were purchased from Beijing Vital River Laboratory Animal Technology Co., Ltd. (Beijing, China) and kept in the Laboratory Animal Center of China Agricultural University (Beijing, China). At 72 h post-partum, the mice were randomly divided into 5 groups (n = 9 per group) and the offspring were removed 3 h before of administration. The mice were anesthetized by Zoletil 50 (55 mg/kg body weight, WK001, Virbac, France) and held under the stereoscope in a supine position. Mice in the saline group and Z-d14CFR group were intraductal inoculated with 50 μL normal saline or 50 μL Z-d14CFR (25 μg each teat) alone to the milk duct. Mice in other groups were inoculated with 25 μL (1 × 10^5 CFU) E. coli CAU201919 suspension to the milk duct, and after 3 h of E. coli challenged, mice were treated with 25 μL saline, Z-d14CFR (25 μg) or gentamicin (10 μg), respectively, via milk duct injection. Then the mice were given the same treatment after 15 h of E. coli challenged. After 27 h of E. coli challenged, all mice were euthanized. The mammary gland tissues were collected to carry out bacterial count, histopathological examination and inflammatory factors examination.

[16] = Retention time of peptide in HPLC (hydrophobicity); type: physicochemical; details: used as measure of hydrophobicity (order Z-d14CR > Z-d14CF > Z-d13 > Z-d14CFR > Z-d14C); column and gradient not given
[17] = Proteus vulgaris CVCC1971, read-out: MBC
[18] = Proteus vulgaris, CVCC1971, 18 h, read-out: MIC
[19] = Klebsiella pneumoniae CAU202084 (MDR isolate), read-out: MBC
[20] = Klebsiella pneumoniae, CAU202084, 18 h, read-out: MIC
[21] = Streptococcus suis CVCC3307, read-out: MBC
[22] = Streptococcus suis, CVCC3307, 18 h, read-out: MIC
[23] = Staphylococcus aureus, 18 h, read-out: MIC
[24] = Staphylococcus aureus, read-out: MBC

Compound | MBC [1] [mg/L] | MIC [1] [mg/L] | MBC [2] [mg/L] | MIC [2] [mg/L] | MIC [3] [mg/L] | MBC [3] [mg/L] | MBC [4] [mg/L] | MIC [4] [mg/L] | MBC [5] [mg/L] | MIC [5] [mg/L] | MBC [6] [mg/L] | MIC [6] [mg/L] | MBC [7, 17] [mg/L] | MIC [7, 18] [mg/L] | MBC [8] [mg/L] | MIC [8] [mg/L] | MIC [9] [mg/L] | MBC [9] [mg/L] | MBC [10, 19] [mg/L] | MIC [10, 20] [mg/L] | further results
CC1(C)S[C@@H]2[C@H](NC(=O)[C@H](N)c3ccccc3)C(=O)N2[C@H]1C(=O)O [Ampicillin, reference compound] | > 1000 | > 1000 | > 1000 | > 1000 | > 1000 | > 1000 | 4 (≈ 11.4 µM) | 2 (≈ 5.72 µM) | > 1000 | > 1000 | 32 (≈ 91.6 µM) | 8 (≈ 22.9 µM) | > 1000 | > 1000 | 16 (≈ 45.8 µM) | 4 (≈ 11.4 µM) | 4 (≈ 11.4 µM) | 8 (≈ 22.9 µM) | > 1000 | > 1000 | MBC [11, 21]: 2 mg/L (≈ 5.72 µM); MIC [11, 22]: 1 mg/L (≈ 2.86 µM); MIC [12, 23]: > 1000 mg/L; MBC [12, 24]: > 1000 mg/L
CNC(C)C1CCC(N)C(OC2C(N)CC(N)C(OC3OCC(C)(O)C(NC)C3O)C2O)O1 (stereo not drawn) [Gentamicin, reference compound] | 80 (≈ 168 µM) | 80 (≈ 168 µM) | 40 (≈ 83.8 µM) | 40 (≈ 83.8 µM) | 4 (≈ 8.38 µM) | 32 (≈ 67 µM) | 4 (≈ 8.38 µM) | 4 (≈ 8.38 µM) | 4 (≈ 8.38 µM) | 4 (≈ 8.38 µM) | 4 (≈ 8.38 µM) | 2 (≈ 4.19 µM) | 4 (≈ 8.38 µM) | 1 (≈ 2.09 µM) | 4 (≈ 8.38 µM) | 4 (≈ 8.38 µM) | 2 (≈ 4.19 µM) | 2 (≈ 4.19 µM) | 4 (≈ 8.38 µM) | 1 (≈ 2.09 µM) | time to kill bacteria in the logarithmic phase [13]: ≤ 8 h; time to kill bacteria in the plateau [13]: ≤ 12 h; time to kill bacteria in the logarithmic phase [14]: ≤ 8 h; time to kill bacteria in the plateau [14]: ≤ 12 h; bacterial burden in the mammary gland ([15]; Crl:CD1 mice, 1 × 10^5 CFU E. coli CAU201919 intraductal, infected only about 3.71 × 10^9, p < 0.001): 3.13 × 10^8 CFU/g tissue; histopathologic damage of the mammary gland (acinar wall thickening, neutrophils infiltration) [15]: obviously ameliorated; increase in IL-1β mRNA expression in the mammary gland ([15]; p < 0.001): attenuated; increase in TNF-α mRNA expression in the mammary gland ([15]; p < 0.001): attenuated; MBC [11, 21]: 8 mg/L (≈ 16.8 µM); MIC [11, 22]: 4 mg/L (≈ 8.38 µM); MIC [12, 23]: 4 mg/L (≈ 8.38 µM); MBC [12, 24]: 16 mg/L (≈ 33.5 µM)
CC(C)[C@@H]1NC(=O)[C@@H]2CSSC[C@H](NC(=O)[C@H](Cc3ccc(O)cc3)NC(=O)[C@@H](NC(=O)CNC(=O)[C@@H](N)CCCNC(=N)N)CSSC[C@@H](C(=O)N[C@@H](CCCNC(=N)N)C(N)=O)NC1=O)C(=O)N[C@@H](CC(N)=O)C(=O)N[C@@H](CO)C(=O)N[C@@H](CCCCN)C(=O)N[C@@H](CO)C(=O)N[C@@H](Cc1ccccc1)C(=O)N2 [Z-d14CF] (H-RGCYCNSKSFCVCR-NH2; disulfide 3-13, 5-11; N-terminus assumed) |  |  |  |  |  |  |  |  |  |  |  |  |  |  |  |  |  |  |  |  | RT, retention time of peptide in HPLC [16]: 9.538 min; MIC ([7]; Proteus vulgaris CVCC1971, 1 × 10^6 CFU/mL, 18 h at 37 °C, NA = no antimicrobial activity at 1 mg/mL): NA (NA) (No antimicrobial activity at 1 mg/mL); MBC ([7]; Proteus vulgaris CVCC1971): NA (NA) (No antimicrobial activity at 1 mg/mL); MIC ([10]; Klebsiella pneumoniae CAU202084 (MDR isolate), 1 × 10^6 CFU/mL, 18 h at 37 °C, NA = no antimicrobial activity at 1 mg/mL): NA (NA) (No antimicrobial activity at 1 mg/mL); MBC ([10]; Klebsiella pneumoniae CAU202084 (MDR isolate)): NA (NA) (No antimicrobial activity at 1 mg/mL); MIC ([11]; Streptococcus suis CVCC3307, 1 × 10^6 CFU/mL, 18 h at 37 °C, NA = no antimicrobial activity at 1 mg/mL): NA (NA) (No antimicrobial activity at 1 mg/mL); MBC ([11]; Streptococcus suis CVCC3307): NA (NA) (No antimicrobial activity at 1 mg/mL); MIC ([12]; MRSA (methicillin-resistant S. aureus) ATCC33591, 1 × 10^6 CFU/mL, 18 h at 37 °C, NA = no antimicrobial activity at 1 mg/mL): NA (NA) (No antimicrobial activity at 1 mg/mL); MBC [12]: NA (NA) (No antimicrobial activity at 1 mg/mL)
polymyxin B |  |  |  |  |  |  |  |  |  |  |  |  |  |  |  |  |  |  |  |  | time to kill bacteria in the logarithmic phase [13]: ≤ 4 h; time to kill bacteria in the plateau [13]: ≤ 12 h; time to kill bacteria in the logarithmic phase [14]: ≤ 4 h; time to kill bacteria in the plateau [14]: ≤ 12 h
